Structures can show the parent of a compound that is named as a salt.

Data set [1] in a line: solid state characteristics of the crystalline sodium salt. Format: physicochemical. To be noted: non-hygroscopicity, physical stability, etc.
Data set [2] can be described thus: aqueous solubility. Format: physicochemical. To be noted: water, crystalline sodium salt.
Data set [3] is classed as physicochemical. On the procedure:
Phase solubility experiments were conducted by adding excess amounts (20 mg/mL) of L-686,708, sodium salt, to aqueous solutions (pH=9) containing various amounts of cyclodextrin and mixing on a rotating mixer. After equilibration at room temperature for at least 48 hrs, aliquots of the mixture were centrifuged to separate the undissolved sodium salt. The supernatant was diluted and dissolved L-686,708 concentration measured by HPLC. […] This stability constant is a tentative measure of complex formation.

The nature of data set [4]: oral bioavailability, general statement. To be noted: in vivo.

On to `CC(C)(C)Sc1c(CC(C)(C)C(=O)O)n(Cc2ccc(Cl)cc2)c2ccc(OCc3ccc4ccccc4n3)cc12` [L-686,708 sodium salt, Crystalline 3-[N-(p-chlorobenzyl)-3-(t-butylthio)-5-(quinolin-2-ylmethoxy)indol-2-yl]-2.2-dimethylpropanoic acid, sodium salt], for which, in data set [1], the “solid state characteristics (in words)” value was “good solid state characteristics, such as non-hygroscopicity, physical stability”. Besides, in data set [2], the solubility is 5 to 30 µg/mL. For the same compound, in data set [3], the “type of solubility curve (Higuchi)” value is on record as “An -type”. Moreover, in data set [4], the “oral bioavailability (in words)” value is on record as “low oral bioavailability”.

In general, solubility refers to the dissolved amount per volume that the medium holds.

Values taken from US5254541A, “(Quinolin-2-ylmethoxy)indole/cyclodextrin complex” (Merck Frosst Canada, Inc., priority 1991, dated 1993).
